US9657035B1, “Method of treating cancer and gold(III) complexes as anti-cancer agents” (KING FAHD UNIVERSITY OF PETROLEUM AND MINERALS, priority 2015, dated 2017)

Assays:
[1] = system: ovarian epithelial carcinoma-derived cancer cells A2780; experiment: Cell proliferation MTT assay, 72 h; assay type: cell-based, human; conditions: mean±SEM
Experimental: (§1) Complexes 1 and 2 were dissolved (10 mM) in DMSO and stored at -80° C. at volumes of 500 μL or aliquots with volumes of 10 μL were taken and stored at -20° C. (used once without refreezing). The compounds were then diluted in RPMI medium immediately before use. Cisplatin was purchased from Mayne Pharma. Culture medium with the same amount of drug-free DMSO was used as a negative control. The classical Hodgkin lymphoma L-540 cell line was obtained from the German Collection of Microorganisms and Cell Cultures (Braunschweig, Germany). Human ovarian epithelial carcinoma-derived cancer cells A2780 and its cisplatin-resistant clone A2780cis were from Sigma, Inc. (St. Louis, Mo., USA). The parent cisplatin-resistant subclone A2780cis was maintained by weekly treatment with 1 μM cisplatin ([…]. Celegato, C. Borghese, M. Mongiat, A. Colombatti, and D. Aldinucci, Clin. Cancer Res. vol. 20, pp. 5496-5506, 2014, incorporated herein by reference in its entirety). Cells were cultured at 37° C. in 5% CO2 in RPMI medium supplemented with 10% heat-inactivated FBS, 0.1% (w/v) L-glutamine and antibiotics (0.2 mg/mL penicillin and streptomycin). For the cell proliferation assay, 4.0×10^3 A2780 and A2780cis cells were seeded in 96-well flat-bottomed microplates in RPMI medium (100 μL) and incubated at 37° C. in a 5% CO2 atmosphere for 24 h (to allow cell adhesion) before drug testing. The medium was then removed and replaced with fresh medium containing the compounds to be tested and cisplatin at increasing concentrations (from 1 to 100 μM) at 37° C. for 72 h. Each treatment was performed in triplicate. Cell proliferation was assayed using the MTT assay. L-540 cells (2.0×10^5/ml) were seeded in 48-well plates and treated with increasing concentrations of complex 1 and complex 2. After 72 hours, the number of viable cells was evaluated by a trypan blue dye exclusion. The IC50 values (i.e., the half maximal inhibitory concentration, representing the concentration of a substance required for 50% inhibition in vitro) were calculated using CalcuSyn software (Biosoft, Ferguson, Mo., USA) (T. C. Chou, and P. Talalay, Adv. Enzyme Regul. vol. 22, pp. 27-55, 1984, incorporated herein by reference in its entirety). The results were presented as the mean±SEM of three replicate wells from three independent experiments. The cells were imaged under an inverted microscope (Eclipse TS/100, Nikon) with a photomicrographic system (DS Camera Control Unit DS-L2). Phase contrast micrographs were taken at a magnification of 4× (for L-540 cells) and 10× (for A2780 and A2780cis cells).

[2] = system: cisplatin-resistant clone A2780cis; experiment: Cell proliferation MTT assay, 72 h; assay type: cell-based, human; conditions: for IC50: A2780cis cells, 72 h, MTT, mean±SEM; for Fold resistance A2780cis/A2780 ratio: ratio of IC50 A2780cis to A2780
Experimental: as §1

[3] = Kinetics of substitution reaction of gold(III) complexes with glutathione (UV-vis, 297 nm); assay type: physicochemical; conditions: for second-order rate constant k for the reaction with GSH: at 298K, 20 mM NaCl, 297 nm; for ΔH^† activation enthalpy, reaction with GSH / ΔS^† activation entropy, reaction with GSH: from Eyring plots
Experimental: All kinetics measurements were made using a UV-vis spectrophotometer (Agilent Technologies, Cary 100 UV-Vis). Scanning kinetic mode was used to investigate the change in the electronic spectra for gold(III) complexes upon interaction with GSH to determine the effective wavelength for the reactions. Then, the kinetic mode was used to monitor the reaction progress at the selected wavelength. A solution containing 0.2 mM gold(III) complexes was prepared in water, and 40 mM sodium chloride was added to improve the stability of the mononuclear-gold(III) complexes by preventing hydrolysis of the chlorides (A. Djeković, B. Petrović, Z. D. Bugarcić, R. Puchta, and R. van Eldik, Dalton Trans., vol. 41, no. 13, pp. 3633-41, 2012, incorporated herein by reference in its entirety). A series of GSH solutions was also prepared. Equal volumes of gold(III) complex solution and GSH solution were mixed, and the spectral changes recorded using the scanning kinetic mode in the range from 200 nm to 350 nm. Then, the kinetic mode was used to follow the reaction at three different temperatures. The reaction between the gold(III)-diamine complexes and the GSH ligand to form gold(III)-complexes can be illustrated in following equation: […]
The rate (k) of the described reactions can be calculated from the slope of the linear plot of kobs versus GSH concentration according to eqn (1), where the rate of the reverse reaction (k−1) is obtained from the intercept of the straight line. kobs=k[GSH]+k−1[Cl] Eqn (1)
Using Microsoft Excel, the rate constants and activation parameters were calculated from Eyring plots: […]
The kinetics of the substitution reaction between the synthesized anticancer gold(III) complexes 1 and 2 with tripeptide glutathione were investigated spectrophotometrically by monitoring the spectral changes of the gold(III) complexes in solution with excess of GSH. […] Equal volumes of the gold(III) complexes and GSH were kept until thermal equilibration was achieved and then mixed directly inside a UV cell. The changes in the absorption at a selected wavelength (297 nm) under pseudo-first order conditions as functions of the glutathione concentration and temperature were collected. The […] rate constant (k) was obtained from the linear plot of kobs versus the total GSH concentration (1). NaCl was added in excess to avoid the hydrolysis of mononuclear-gold(III) diamine chloride, but this was not found to be effective for complex 2 (FIG. 2).

[4] = system: classical Hodgkin lymphoma L-540 cell line; experiment: In vitro cytotoxicity, trypan blue dye exclusion, 72 h; assay type: cell-based, human; conditions: L-540 cells; for IC50: trypan blue assay
Experimental: Complexes 1 and 2 were dissolved (10 mM) in DMSO and stored at −80° C. at volumes of 500 μL or aliquots with volumes of 10 μL were taken and stored at −20° C. (used once without refreezing). The compounds were then diluted in RPMI medium immediately before use. Cisplatin was purchased from Mayne Pharma. Culture medium with the same amount of drug-free DMSO was used as a negative control.
The classical Hodgkin lymphoma L-540 cell line was obtained from the German Collection of Microorganisms and Cell Cultures (Braunschweig, Germany). Human ovarian epithelial carcinoma-derived cancer cells A2780 and its cisplatin-resistant clone A2780cis were from Sigma, Inc. (St. Louis, Mo., USA). The parent cisplatin-resistant subclone A2780cis was maintained by weekly treatment with 1 μM cisplatin (N. Casagrande, M. Celegato, C. Borghese, M. Mongiat, A. Colombatti, and D. Aldinucci, Clin. Cancer Res. vol. 20, pp. 5496-5506, 2014, incorporated herein by reference in its entirety). Cells were cultured at 37° C. in 5% CO2 in RPMI medium supplemented with 10% heat-inactivated FBS, 0.1% (w/v) L-glutamine and antibiotics (0.2 mg/mL penicillin and streptomycin).
For the cell proliferation assay, 4.0×10^3 A2780 and A2780cis cells were seeded in 96-well flat-bottomed microplates in RPMI medium (100 μL) and incubated at 37° C. in a 5% CO2 atmosphere for 24 h (to allow cell adhesion) before drug testing. The medium was then removed and replaced with fresh medium containing the compounds to be tested and cisplatin at increasing concentrations (from 1 to 100 μM) at 37° C. for 72 h. Each treatment was performed in triplicate. Cell proliferation was assayed using the MTT assay. L-540 cells (2.0×10^5/ml) were seeded in 48-well plates and treated with increasing concentrations of complex 1 and complex 2. After 72 hours, the number of viable cells was evaluated by a trypan blue dye exclusion. […]

Compound | IC50 [1] [µM] | IC50 [2] [µM] | Fold resistance A2780cis/A2780 ratio [2] | Fold resistance A2780cis/A2780 ratio ([2]; listed as cisplatin) | Ea activation energy, reaction with GSH [3] [kcal/mol] | second-order rate constant k for the reaction with GSH [3] [M⁻¹ s⁻¹] | ΔH^† activation enthalpy, reaction with GSH [3] [kcal/mol] | ΔS^† activation entropy, reaction with GSH [3] [JK^−1mol^−1] | IC50 [4] [µM] | IC50 ([1]; listed as 2) [µM] | IC50 ([1]; listed as (2)) [µM] | fold more active than complex 1 (L-540 IC50) [4] [fold]
N.N.[Cl][Pt][Cl] [Cisplatin, reference compound] | 1.8 | 17.6 | 9.77 | 9.7 | – | – | – | – | – | – | – | –
NC1CCCCC1N.[Au+3].[Cl-].[Cl-].[Cl-] [Complex 1, 1(R),2(R)-[(DACH)AuCl2]Cl] | 15.7 | 61.3 | 3.90 | – | 7.65 | 1.14 | 7.17 | −137 | 70.4 | – | – | –
NC1CCCCC1N.NC1CCCCC1N.[Au+3].[Cl-].[Cl-].[Cl-] [Complex 2, 1(R),2(R)-[(DACH)2Au]Cl3] | – | 31.1 | 4.45 | – | 4.54 | 0.31 | 4.06 | −189 | 9.8 | 6.98 | 6.9 ± 0.6 | 7
